Laboratory results as given in patent EP0361645B1, “Organic hydrazine derivatives for pharmaceutical use” (ROHM AND HAAS COMPANY, priority 1988, dated 1990).

Key:
[1] = system: helminths; details: stated as known; cited from earlier work
[2] = system: ligated M. sexta abdomens (L4D1); test: Onset of molting in ligated L4D1 M. sexta abdomens (injection); format: in vivo; details: injected into L4D1 abdomens
Procedure: L4D1 means fourth instar, first day after molting. L4 animals 36 hours after ecdysis were ligated, decapitated and next day injected with varying doses of compound in 1 - 2 ul DMSO. They were scored as follows: 0 = normal L4 abdomens with no L5 crochets or spiracle apolysis; 1 = exposed dorsal vessel (response to moderate levels of molting hormone in the presence of low JH levels); 2 = L5 crochets formed but no spiracle apolysis; 3 = L5 crochets formed and mild spiracle apolysis; 4 = strong molting response, both L5 crochets and spiracle cuticle synthesized. These methods are an adaptation of the method of J. W. Truman, L. M. Riddiford, L. Safranek, 39 Dev. Biol 247 (1974). Injection and scoring of L5D3 abdomens (weighing 6.5 - 7.5 g) are also adaptations of previous methods in H. F. Nijhout, 22 J. Insect Physiol. 453 (1976). […] Animals were held over moistened filter paper at 25 ° C and were scored after three days. […] For both L4 and L5 abdomens, 50% effective doses were determined by plotting the mean score for all individuals vs. dose, then determining the dose which gives a score of 2.0 and 1.5 respectively. Intact L5D0 hornworms were either allowed to feed on treated commercial black cutworm diet or injected into a proleg and scored after 48 hours. The 50% effective dose was calculated by plotting percentage of the population bearing a prematurely apolysed head capsule vs. dose. […]

[3] = system: M. sexta; test: Hemolymph ecdysteroid titers (radioimmunoassay) and weight gain of fourth instar M. sexta fed compound in artificial diet; format: in vivo, Manduca sexta
Procedure: The invention will now be further described by way of exemplification and by reference to the drawings in which; • Figure 1. Both 20-hydroxyecdysone and Example No. 3 induce process elaboration (A) and inhibition of cell proliferation (B) in Kr cells in a dose-dependent manner. Initial cell density was 2 X 10^6 cells/ml; after incubation of 1 ml aliquots of the cells with the compound for 48 hours the cells were triturated gently and the percentage of cells responding (with processes longer than approximately 17 um, see Cherbas et al. 189 Wilhelm Roux's Arch. 1 (1980)) and total cell density was determined by hemocytom- eter counting, relative to ethanol (1 ul)-treated controls. Determinations were in triplicate for each dose. […] Induction of acetylcholinesterase by varying concentrations of 20-hydroxyecdysone and Example No. 3. Kr cells at an initial density of 3 X 10^6 cells/ml (10 ml per sample) were incubated with the agonist for three days. After harvesting, by centrifugation at 3000 X g, the cell pellets were washed with Robb's Drosophila saline (18, 2 X 5 ml) at 4 ° C, then lysed by sonication in 1 ml of phosphate buffer (pH 7.4, I = 0.1 M) containing 0.5 M NaCI, 0.25 M EDTA and 0.5% TRITON? X-100. See Cherbas, 197 Science 275 (1977). Triton is a registered trademark of Rohm and Haas Company for a alkylaryl polyoxyethylene glycol surfactant. After centrifugation at 16,000 X g, the supernatants were assayed for acetylcholinesterase activity by an adaptation of the method of Ellman et al., 7 Biochem. Pharmacol. 88 (1961), by subtracting out any 412 nm absorbance observed in incubations in the presence of 2 X 10-5 eserine sulfate. Thus reaction mixtures contained 50 ul of enzyme extract, 20 ul eserine (blank tubes only) and 1.0 ml of 0.5 mM acetylthiocholine, 0.3 mM dithiobisnitrobenzoic acid in phosphate buffer (pH 7.4, I = 0.1 M). Incubations were at 25 ° C for two hours; reactions in active tubes were terminated by addition of eserine. Absorbance at 412 nm was then measured. Protein concentration in extracts was measured by the Biorad method. […] Scatchard plot of ^3H-ponasterone A binding to Kr cell cytosolic receptor extracts in the presence of differing concentrations of Example No. 3. Cytosolic extract preparation and ecdysteroid receptor assays were essentially as described in Sage, 111 Meth. in Enzymol. 458 (1985). Example No. 3 was added in 1 ul DMSO to 50 ul of radioligand in 10 mM Tris buffer (pH 7.2) and 50 ul of undiluted cytosol extract. After incubation overnight at 0.5 ° C, bound label was separated from free by addition of 300 ul 1% HCI-washed charcoal (Sigma) and 0.1% Dextran T70 (Pharmacia) in Tris buffer, centrifugation (13,000 X g, 3 min, 4 ° C) and liquid scintillation counting of a 300 ul aliquot of the supernatant in 15 ml Hydrofluor (National Diagnostics). Points are means of duplicate determinations. […] Relative ability of 20 hydroxyecdysone and Example No. 3 to displace ^3H-ponasterone A from cytosolic receptor extracts. Conditions were as in Figure 3 except that only 0.5 nM ponasterone A was used. • Points are means of duplicate determinations. For 20-hydroxyecdysone EC50 = 0.1 uM while for Example No. 3 EC50 = 3.0 uM. Control binding = 10 femtomoles ^3H-ponasterone A bound per mg cytosol protein. • Figure 4. […] Ecdysteroid titers were measured by a radioimmunoassay adapted from Warren et al., 40 Experientia 393 (1984) with Protein A-Staph. aureus suspension (Sigma) used as the reagent to separate bound from free ligand. […]

[4] = system: antiecdysone antiserum; test: Binding by antiecdysone antiserum (radioimmunoassay)
Procedure: The invention will now be further described by way of exemplification and by reference to the drawings in which; • Figure 1. Both 20-hydroxyecdysone and Example No. 3 induce process elaboration (A) and inhibition of cell proliferation (B) in Kr cells in a dose-dependent manner. Initial cell density was 2 X 10^6 cells/ml; after incubation of 1 ml aliquots of the cells with the compound for 48 hours the cells were triturated gently and the percentage of cells responding (with processes longer than approximately 17 um, see Cherbas et al. 189 Wilhelm Roux's Arch. 1 (1980)) and total cell density was determined by hemocytom- eter counting, relative to ethanol (1 ul)-treated controls. Determinations were in triplicate for each dose. […] Induction of acetylcholinesterase by varying concentrations of 20-hydroxyecdysone and Example No. 3. Kr cells at an initial density of 3 X 10^6 cells/ml (10 ml per sample) were incubated with the agonist for three days. After harvesting, by centrifugation at 3000 X g, the cell pellets were washed with Robb's Drosophila saline (18, 2 X 5 ml) at 4 ° C, then lysed by sonication in 1 ml of phosphate buffer (pH 7.4, I = 0.1 M) containing 0.5 M NaCI, 0.25 M EDTA and 0.5% TRITON? X-100. See Cherbas, 197 Science 275 (1977). Triton is a registered trademark of Rohm and Haas Company for a alkylaryl polyoxyethylene glycol surfactant. After centrifugation at 16,000 X g, the supernatants were assayed for acetylcholinesterase activity by an adaptation of the method of Ellman et al., 7 Biochem. Pharmacol. 88 (1961), by subtracting out any 412 nm absorbance observed in incubations in the presence of 2 X 10-5 eserine sulfate. […] Absorbance at 412 nm was then measured. Protein concentration in extracts was measured by the Biorad method. […] Ecdysteroid titers were measured by a radioimmunoassay adapted from Warren et al., 40 Experientia 393 (1984) with Protein A-Staph. aureus suspension (Sigma) used as the reagent to separate bound from free ligand. […]

[5] = Hemolymph titers of 14C-Example No. 3 in L5 hornworms after feeding; format: in vivo, M. sexta
[6] = L4 M. sexta, 10 ppm in artificial diet

| Compound | control of helminths [1] | fold more potent than 20-hydroxyecdysone [2] [fold] | ecdysone titers relative to control levels ([3]; L4D0 animals, within four hours after the initiation of feeding) | outcome of the molt ([3]; L4 M. sexta treated larvae) | feeding and weight gain [3, 6] | immunoreactive ecdysone titers [3, 6] | time to head capsule slippage [3, 6] [h] | binding by antiecdysone antiserum ([4]; 1 X 10^-4 M) | fold lower binding affinity than 20-hydroxyecdysone ([4]; antiecdysone antiserum) [fold] | peak hemolymph concentration relative to concentrations required for a 50% response in Kr cell process elaboration and ^3H-ponasterone A displacement ([5]; 10 ug/g oral dose) [fold] | concentration at 36 h ([5]; tobacco hornworm, hemolymph, po, 10 ug/g in diet, for at least 36 hours thereafter, read-out: residual hemolymph level) [µM] | Cmax at 6 h ([5]; tobacco hornworm, hemolymph, po, L5D0 larvae, 10 ug/g in diet, at six hours after the initiation of feeding, read-out: peak hemolymph concentration) [µM] |
| --- | --- | --- | --- | --- | --- | --- | --- | --- | --- | --- | --- | --- |
| CC(C)(O)CC[C@@H](O)[C@](C)(O)[C@H]1CC[C@@]2(O)C3=CC(=O)[C@@H]4C[C@@H](O)[C@@H](O)C[C@]4(C)[C@H]3CC[C@]12C [20-hydroxyecdysone, reference compound] | controls helminths |  |  |  |  |  |  |  |  |  |  |  |
| CC(C)(C)N(NC(=O)c1ccccc1)C(=O)c1ccccc1 [Example No. 3, N'-t-butyl-N,N'-dibenzoylhydrazine] |  | 30 | significantly depressed | eventually died without completing the molt | further feeding and weight gain ceases | without any elevation of ecdysone titers | 24 | not significantly bound | > 3125 | 3 to 5 | ~3 | 16 |
